Patent US4228239A (priority 1977, dated 1980)

How the values were obtained:
[1] = tested on: Trichophyton rubrum; test: Activity against microorganisms; assay type: cell-based
[2] = tested on: Cochlioborus miyabeanus; test: Activity against microorganisms; assay type: cell-based
[3] = tested on: P388 leukemia; test: Antitumour activity upon P388 leukemia in mice; assay type: in vivo, mouse; conditions: 0.00625 mg/kg/day, intraperitoneal, 9 consecutive days; 1×10^6 cells/animal i.p. transplanted
Excerpt: The therapeutic effects of P-3 (dosed intraperito-nearly for 9 consecutive days) upon P388 leukemia in mice (1×10^6 cells/animal, mouse, intra-peritoneally transplanted) was investigated.

[4] = tested on: Rhodotorula rubra; test: Activity against microorganisms; assay type: cell-based
[5] = tested on: Proteus vulgaris; test: Antimicrobial activity, paper disc method; assay type: cell-based; conditions: paper disc 8 mm, 0.02 ml of a 300 μg/ml solution, trypticase-soy agar
Experimental: (§1) With trypticase-soy agar (BBL) as an assay medium, the inhibitory concentrations against the microorganisms described below were investigated by the paper disc method. Filter-paper discs (Toyo Seisakusho, thin-type, 8 mm in dia.) each impregnated with 0.02 ml of a 300 μg/ml solution of P-3 were placed on agar plates respectively inoculated with the microorganisms described below. P-3 had no activity against the following bacteria: Escherichia coli, Proteus vulgaris, Proteus mirabilis, Pseudomonas aeruginosa, Staphylococcus aureus, Bacillus subtilis, Bacillus cereus, Klebsiella pneumoniae, Serratia marcescens, and Mycobacterium avium.

[6] = tested on: Bacillus subtilis; test: Antimicrobial activity, paper disc method; assay type: cell-based; conditions: paper disc 8 mm, 0.02 ml of a 300 μg/ml solution, trypticase-soy agar
Experimental: as §1

[7] = tested on: Mycobacterium avium; test: Antimicrobial activity, paper disc method; assay type: cell-based; conditions: paper disc 8 mm, 0.02 ml of a 300 μg/ml solution, trypticase-soy agar
Experimental: as §1

[8] = tested on: Bacillus cereus; test: Antimicrobial activity, paper disc method; assay type: cell-based; conditions: paper disc 8 mm, 0.02 ml of a 300 μg/ml solution, trypticase-soy agar
Experimental: as §1

[9] = tested on: Escherichia coli; test: Antimicrobial activity, paper disc method; assay type: cell-based; conditions: paper disc 8 mm, 0.02 ml of a 300 μg/ml solution, trypticase-soy agar
Experimental: as §1

[10] = tested on: Pseudomonas aeruginosa; test: Antimicrobial activity, paper disc method; assay type: cell-based; conditions: paper disc 8 mm, 0.02 ml of a 300 μg/ml solution, trypticase-soy agar
Experimental: as §1

[11] = tested on: Staphylococcus aureus; test: Antimicrobial activity, paper disc method; assay type: cell-based; conditions: paper disc 8 mm, 0.02 ml of a 300 μg/ml solution, trypticase-soy agar
Experimental: as §1

[12] = tested on: Serratia marcescens; test: Antimicrobial activity, paper disc method; assay type: cell-based; conditions: paper disc 8 mm, 0.02 ml of a 300 μg/ml solution, trypticase-soy agar
Experimental: as §1

[13] = tested on: Proteus mirabilis; test: Antimicrobial activity, paper disc method; assay type: cell-based; conditions: paper disc 8 mm, 0.02 ml of a 300 μg/ml solution, trypticase-soy agar
Experimental: as §1

[14] = tested on: Klebsiella pneumoniae; test: Antimicrobial activity, paper disc method; assay type: cell-based; conditions: paper disc 8 mm, 0.02 ml of a 300 μg/ml solution, trypticase-soy agar
Experimental: as §1

[15] = tested on: Helminthosporium sigmoidium var irregulare; test: Activity against microorganisms; assay type: cell-based
[16] = Solubility; assay type: physicochemical
[17] = tested on: Pellicularia sasakii; test: Activity against microorganisms; assay type: cell-based
[18] = tested on: Pyricularia oryzae; assay type: cell-based
[19] = tested on: Talaromyces avellaneus; test: Growth inhibition of a fungus on an agar plate; assay type: cell-based; conditions: Hamigera avellanea, pH 7.0, read-out: minimal inhibitory concentration
Experimental: On the other hand, the growth of a fungus, Talaromyces avellaneus is inhibited by P-3 on an agar plate consisting of 3.5 g disodium hydrogen phosphate, 0.5 g monopotassium dihydrogen phosphate, 5 g yeast extract (Difco), 10 g glucose, 15 g agar, 1000 ml distilled water, pH 7.0. The minimal inhibitory concentration was 3 μg/ml for P-3.

[20] = Preliminary acute toxicity test with mice; conditions: mouse, in vivo, ip, intraperitoneal injection
[21] = tested on: Sclerotinia screrotiorum; test: Activity against microorganisms; assay type: cell-based
[22] = tested on: Fusicladium levieri; test: Activity against microorganisms; assay type: cell-based
[23] = tested on: Cryptococcus neoformans; test: Activity against microorganisms; assay type: cell-based

COc1cc2cc(c1Cl)N(C)C(=O)CC(OC(=O)C(C)C)C1(C)OC1C(C)C1CC(O)(NC(=O)O1)C(OC)C=CC=C(C)C2 (centres unmarked) [P-3]
Sparingly soluble: Solubility ([16]; benzene) | Solubility ([16]; ether)
Insoluble: Solubility ([16]; hexane) | Solubility ([16]; petr.ether) | Solubility ([16]; water)
> 0.313 mg/kg: LD50 [20]
had the activity: activity against Trichophyton rubrum [1] | activity against Cochlioborus miyabeanus [2] | activity against Rhodotorula rubra [4] | activity against Helminthosporium sigmoidium var irregulare [15] | activity against Pellicularia sasakii [17] | activity against Pyricularia oryzae [18] | activity against Sclerotinia screrotiorum [21] | activity against Fusicladium levieri [22] | activity against Cryptococcus neoformans [23]
3 µg/mL: MIC [19]
no activity: activity against bacteria (Proteus vulgaris) [5] | activity against bacteria (Bacillus subtilis) [6] | activity against bacteria (Mycobacterium avium) [7] | activity against bacteria (Bacillus cereus) [8] | activity against bacteria (Escherichia coli) [9] | activity against bacteria (Pseudomonas aeruginosa) [10] | activity against bacteria (Staphylococcus aureus) [11] | activity against bacteria (Serratia marcescens) [12] | activity against bacteria (Proteus mirabilis) [13] | activity against bacteria (Klebsiella pneumoniae) [14]
168%: life-span-extending ratio [3]
Soluble: Solubility ([16]; acetone) | Solubility ([16]; chloroform) | Solubility ([16]; dimethylsulfoxide) | Solubility ([16]; ethanol) | Solubility ([16]; ethyl acetate) | Solubility ([16]; methanol) | Solubility ([16]; pyridine) | Solubility ([16]; tetrahydrofuran)
